Measured values as given in article PMC4521925, “17β-Hydroxysteroid Dehydrogenase Type 2 Inhibition: Discovery of Selective and Metabolically Stable Compounds Inhibiting Both the Human Enzyme and Its Murine Ortholog” (PLoS ONE, 2015).
Read-outs that look alike come from different tables or passages of the source.

What was measured:
m17β-HSD2 = target: T1, m17β-HSD2 (Mus musculus, UniProt P51658); assay: Inhibition of m17β-HSD2 in cell-free assay; format: biochemical; conditions: for % inh. at 1 μM m17β-HSD2: mouse liver microsomal fraction, substrate E2 [500 nM], cofactor NAD+ [1500 μM], Table 1
T1 construct: The microsomal fraction (m17β-HSD2) was obtained from mouse liver as described for h17β-HSD2; tissue Pharmacelsus GmbH (mouse livers); host or cells: mouse liver, microsomal fraction
T1 sequence (P51658 1-381): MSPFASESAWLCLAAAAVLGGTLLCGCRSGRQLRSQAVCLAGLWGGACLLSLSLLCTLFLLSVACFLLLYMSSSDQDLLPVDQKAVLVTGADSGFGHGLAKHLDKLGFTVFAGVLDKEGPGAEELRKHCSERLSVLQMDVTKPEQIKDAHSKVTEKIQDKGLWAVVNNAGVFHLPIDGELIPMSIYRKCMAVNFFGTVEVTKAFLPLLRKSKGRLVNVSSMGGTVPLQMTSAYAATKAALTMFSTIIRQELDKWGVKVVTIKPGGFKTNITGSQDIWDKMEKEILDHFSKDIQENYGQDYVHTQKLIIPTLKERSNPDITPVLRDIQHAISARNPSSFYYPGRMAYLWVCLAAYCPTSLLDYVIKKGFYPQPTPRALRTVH
Protocol: (§1) h17β-HSD2, h17β-HSD1, m17β-HSD2 and m17β-HSD1 cell-free assays were performed similarly, by incubating enzyme, tritiated substrate, cofactor and inhibitor, according to described procedures.
The microsomal fraction (m17β-HSD2) was obtained from mouse liver as described for h17β-HSD2. Inhibitory activities were evaluated by a method identical to the one described for the human enzyme.
(§2) Inhibitory activities were evaluated following an established method with minor modifications. Briefly, the enzyme preparation was incubated with NAD^+ [1500 μM] in the presence of potential inhibitors at 37C in a phosphate buffer (50 mM) supplemented with 20% of glycerol and EDTA 1mM. Inhibitor stock solutions were prepared in DMSO. Final concentration of DMSO was adjusted to 1% in all samples. […] After 20 min, the incubation was stopped with HgCl2 and the mixture was extracted with ether. After evaporation, the steroids were dissolved in acetonitrile/water (45:55). […] Detection and quantification of the steroids were performed using a radioflow detector (Berthold Technologies, Bad Wildbad). […] Each value was calculated from at least two independent experiments.

h17β-HSD2 [1] = target: T2, h17β-HSD2 (Homo sapiens, UniProt P37059); parameters: from tissue; host or cells: human placenta, microsomal fraction; conditions: human placental microsomal fraction, substrate E2 [500 nM], cofactor NAD+ [1500 μM]; previously described inhibitors; cited from earlier work
T2 sequence (P37059 1-387): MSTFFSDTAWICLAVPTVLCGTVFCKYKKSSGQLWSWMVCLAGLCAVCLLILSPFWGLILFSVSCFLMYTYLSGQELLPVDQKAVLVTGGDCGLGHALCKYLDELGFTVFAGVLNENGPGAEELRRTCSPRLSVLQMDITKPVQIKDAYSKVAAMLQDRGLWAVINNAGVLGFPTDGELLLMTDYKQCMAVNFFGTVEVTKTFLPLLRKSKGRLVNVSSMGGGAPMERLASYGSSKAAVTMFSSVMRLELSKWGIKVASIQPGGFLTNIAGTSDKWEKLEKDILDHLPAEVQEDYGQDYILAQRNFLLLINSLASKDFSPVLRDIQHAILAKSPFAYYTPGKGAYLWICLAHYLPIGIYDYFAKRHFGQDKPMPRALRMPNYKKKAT

h17β-HSD1 = target: T3, h17β-HSD1 (Homo sapiens, UniProt P14061); assay: Inhibition of h17β-HSD1 in cell-free assay; format: biochemical; conditions: human placental cytosolic fraction, substrate E1 [500 nM], cofactor NADH [500 μM]
T3 construct: h17β-HSD1 was obtained after precipitation with ammonium sulfate from the cytosolic fraction; from tissue; host or cells: human placenta, cytosolic fraction
T3 sequence (P14061 1-328): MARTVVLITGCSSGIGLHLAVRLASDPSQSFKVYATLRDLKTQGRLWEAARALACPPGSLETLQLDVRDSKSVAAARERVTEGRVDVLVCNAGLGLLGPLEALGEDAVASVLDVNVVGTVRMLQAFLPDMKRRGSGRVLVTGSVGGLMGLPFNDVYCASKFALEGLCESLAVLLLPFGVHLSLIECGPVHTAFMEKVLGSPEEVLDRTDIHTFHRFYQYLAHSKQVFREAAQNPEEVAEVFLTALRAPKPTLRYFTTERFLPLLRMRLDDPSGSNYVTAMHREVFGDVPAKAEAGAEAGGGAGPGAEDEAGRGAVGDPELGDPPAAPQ
Protocol: as §1
(§3) Cytosolic (h17β-HSD1) and microsomal (h17β-HSD2) fractions were obtained from human placenta according to previously described procedures. Fresh tissue was homogenized and the enzymes were separated from the mitochondria, cell membrane. Nucleus and other rests by fractional centrifugation at 1000 g, 10.000 g and 150.000 g. The pellet fraction containing the microsomal h17β-HSD2 was used for the determination of h17β-HSD2 inhibition, while h17β-HSD1 was obtained after precipitation with ammonium sulfate from the cytosolic fraction for use of testing of h17β-HSD1 inhibition. Aliquots containing h17β-HSD1 or h17β-HSD2 were stored frozen.
The 17β-HSD1 inhibition assay was performed similarly to the h17β-HSD2 test. The human cytosolic enzyme was incubated with NADH [500 μM] while the mouse recombinant enzyme was reacted with NADPH [500 μM].Test compound and a mixture of unlabelled- and [^3H]-E1 (final concentration: 500 nM, 0.15 μCi) were added and mixed for 10 min at 37°C. Further treatment of the samples and HPLC separation was carried out as mentioned above for h17β-HSD2.

ERα = target: T4, ERα (Homo sapiens, UniProt P03372); assay: Estrogen receptor affinity in a cell-free assay (ERα); format: binding; conditions: 1000-fold excess relative to E2; recombinant human ERα
T4 sequence (P03372 1-595): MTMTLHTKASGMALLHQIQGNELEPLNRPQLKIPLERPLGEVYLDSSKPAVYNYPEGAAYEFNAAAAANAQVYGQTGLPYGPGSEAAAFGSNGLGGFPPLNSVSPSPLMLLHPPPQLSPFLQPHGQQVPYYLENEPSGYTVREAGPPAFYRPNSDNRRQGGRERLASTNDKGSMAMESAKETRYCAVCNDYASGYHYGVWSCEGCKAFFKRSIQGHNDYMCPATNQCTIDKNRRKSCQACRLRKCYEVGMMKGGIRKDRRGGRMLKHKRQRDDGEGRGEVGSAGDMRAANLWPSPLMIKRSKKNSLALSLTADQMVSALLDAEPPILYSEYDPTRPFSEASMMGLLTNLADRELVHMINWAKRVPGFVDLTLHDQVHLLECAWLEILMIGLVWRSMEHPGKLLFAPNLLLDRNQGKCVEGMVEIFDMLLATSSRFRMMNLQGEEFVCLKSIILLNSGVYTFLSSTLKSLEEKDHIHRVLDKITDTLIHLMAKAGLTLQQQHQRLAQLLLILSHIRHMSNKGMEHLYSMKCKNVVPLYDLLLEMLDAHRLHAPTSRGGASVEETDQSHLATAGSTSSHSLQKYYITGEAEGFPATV
Protocol: (§4) The binding affinity of selected compounds to ERα and ERβ was determined according to the recommendations of the US Environmental Protection Agency (EPA) by their Endocrine Disruptor Screening Program (EDSP)[24] using recombinant human proteins.
(§5) The potential inhibitors were dissolved in DMSO (5% final concentration). […] After incubation, ligand-receptor complexes were selectively bound to hydroxyapatite (83.5 g/LinTE-buffer). The bound complex was washed three times and resuspended in ethanol. For radiodetection, scintillator cocktail (Quickszint 212, Zinsser Analytic, Frankfurt) was added and samples were measured in a liquid scintillation counter (1450 LSC & Luminescence Counter, Perkin Elmer).
(§6) After the assay was established and validated, a modification was made to increase throughput.

[2] = Metabolic stability in a cell-free assay (liver S9 fraction); format: in vitro ADME; conditions: pooled liver S9 fraction; human liver S9 fraction 1 mg/ml, NADPH regenerating system, UDPGA, PAPS, 37°C; inhibitor 1 μM; read-out: Inhibitor t1/2
Protocol: Compounds 7a, 8a, 16a, 19a, 22a, 27a and 27 were tested according to established method[33–35]For evaluation of phase I and II metabolic stability 1 μM compound was incubated with 1 mg/ml pooled mammalian liver S9 fraction (BD Gentest), 2 mM NADPH regenerating system, 1 mM UDPGA and 0.1 mM PAPS at 37°C for 0, 5, 15 and 60 minutes at a final volume of 100 μL. The incubation was stopped by precipitation of S9 enzymes with 2 volumes of cold acetonitrile containing internal standard. Concentration of the remaining test compound at the different time points was analyzed by LC-MS/MS and used to determine half-life (t1/2).

ERβ = ERβ (Homo sapiens, UniProt Q92731); assay: Estrogen receptor affinity in a cell-free assay (ERβ); format: binding; conditions: 1000-fold excess relative to E2; recombinant human ERβ
Sequence of ERβ (Q92731 whole entry): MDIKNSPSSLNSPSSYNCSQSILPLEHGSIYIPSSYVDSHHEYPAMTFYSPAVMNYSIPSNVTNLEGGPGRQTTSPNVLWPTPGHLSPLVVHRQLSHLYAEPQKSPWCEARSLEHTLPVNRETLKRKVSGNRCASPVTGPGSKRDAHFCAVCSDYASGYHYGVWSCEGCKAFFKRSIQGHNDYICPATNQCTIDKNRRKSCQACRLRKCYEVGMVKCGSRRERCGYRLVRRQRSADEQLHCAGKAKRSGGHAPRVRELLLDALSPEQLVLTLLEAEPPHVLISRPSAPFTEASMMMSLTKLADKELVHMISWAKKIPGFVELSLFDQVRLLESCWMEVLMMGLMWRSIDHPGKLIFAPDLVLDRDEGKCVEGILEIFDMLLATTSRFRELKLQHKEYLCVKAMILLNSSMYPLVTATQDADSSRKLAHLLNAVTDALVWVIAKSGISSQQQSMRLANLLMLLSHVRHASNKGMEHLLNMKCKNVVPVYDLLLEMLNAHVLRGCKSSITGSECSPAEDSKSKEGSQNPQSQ
Protocol: as §4, §5, §6

h17β-HSD2 [3] = target: T2, h17β-HSD2; assay: Inhibition of h17β-HSD2 in cell-free assay; format: biochemical; parameters: from tissue; host or cells: human placenta, microsomal fraction
Protocol: as §1, §3, §2

SMILES	% inh. at 1 μM m17β-HSD2 (m17β-HSD2) [%]	IC50 (h17β-HSD2 [1]) [µM]	further results
COc1cccc(N(C)C(=O)c2ccc(-c3cccc(OC)c3F)s2)c1 [Compound 1j]	26	0.062	–
COc1cccc(CN(C)C(=O)c2ccc(-c3cccc(C)c3F)cc2)c1 [Compound 25a, 2'-Fluoro-N-(3-methoxybenzyl)-N,3'-dimethyl-[1,1'-biphenyl]-4-carboxamide]	–	–	inhibition at 1 µM (m17β-HSD2; read-out: % inh. at 1 μM m17β-HSD2): 43%; IC50 (h17β-HSD1): 87 µM; displacement of E2 from ERα (ERα): ≤ 20%; half-life at 1 μM [2]: 1.72 h; displacement of E2 from ERβ (ERβ): ≤ 20%; IC50 (h17β-HSD2 [3]): 0.31 µM; s.f. (selectivity factor) = IC50(17β-HSD1)/IC50(17β-HSD2) (h17β-HSD2 [3]; human enzymes, cell-free): 283
COc1cccc(N(C)C(=O)c2ccc(-c3cccc(N(C)C)c3)s2)c1 [Compound 1g]	40	0.17	–
CN(Cc1cccc(O)c1)C(=O)c1cccc(-c2cccc(O)c2)c1 [Compound 4e]	29	0.64	–
COc1cccc(-c2cccc(C(=O)N(C)c3cccc(OC)c3)c2)c1 [Compound 4a]	25	0.52	–
